Earlier results in PubChem BioAssay AID1259409 (Chemical Carcinogenesis Research Information System (CCRIS), 2018).

System: rodent chemically induced tumor inhibition, incidence and multiplicity
Assay: CCRIS tumor inhibitor studies

O=c1oc2c(O)c(O)cc3c(=O)oc4c(O)c(O)cc1c4c23
tumour outcome (control, treated, inhibition, significance) (Carcinogen: 7,12-DIMETHYLBENZ[A]ANTHRACENE, 57-97-6, Dose [Inhibitor]: 0, 2000 PPM IN DIET FROM 1 WK PRIOR TO CARCINOGEN TREATMENT TO 3 D POST CARCINOGEN TREATMENT (STUDY DURATION: 42 WK), Route [Inhibitor]: ORAL, Species: FISH, Strain/Sex: RAINBOW TROUT/ MALE, FEMALE, Target Tissue: Type of Lesion: STOMACH: TUMOR, Dose [Carcinogen]: 5.5 PPM IN WATER FOR 1 HR, Promoter: NONE USED): 88%, 78%, 11%, p<0.05
tumour outcome (control, treated, inhibition, significance) (Carcinogen: 7,12-DIMETHYLBENZ[A]ANTHRACENE, 57-97-6, Dose [Inhibitor]: 0, 2000 PPM IN DIET FROM 3 WK PRIOR TO CARCINOGEN TREATMENT TO 3 D POST CARCINOGEN TREATMENT (STUDY DURATION: 42 WK), Route [Inhibitor]: ORAL, Species: FISH, Strain/Sex: RAINBOW TROUT/ MALE, FEMALE, Target Tissue: Type of Lesion: LIVER: TUMOR, Dose [Carcinogen]: 4.16 PPM IN WATER FOR 1 HR, Promoter: NONE USED): 7%, 22%, -214%, p<0.001
tumour outcome (control, treated, inhibition, significance) (Carcinogen: 7,12-DIMETHYLBENZ[A]ANTHRACENE, 57-97-6, Dose [Inhibitor]: 0, 2000 PPM IN DIET FROM 3 WK PRIOR TO CARCINOGEN TREATMENT TO 3 D POST CARCINOGEN TREATMENT (STUDY DURATION: 42 WK), Route [Inhibitor]: ORAL, Species: FISH, Strain/Sex: RAINBOW TROUT/ MALE, FEMALE, Target Tissue: Type of Lesion: SWIM BLADDER: TUMOR, Dose [Carcinogen]: 4.16 PPM IN WATER FOR 1 HR, Promoter: NONE USED): 14%, 61%, -336%, p<0.001
tumour outcome (control, treated, inhibition, significance) (Carcinogen: 7,12-DIMETHYLBENZ[A]ANTHRACENE, 57-97-6, Dose [Inhibitor]: O, 2000 PPM IN DIET FROM 3 WK PRIOR TO CARCINOGEN TREATMENT TO 3D POST CARCINOGEN TREATMENT (STUDY DURATION: 42 WK), Route [Inhibitor]: ORAL, Species: FISH, Strain/Sex: RAINBOW TROUT/ MALE, FEMALE, Target Tissue: Type of Lesion: STOMACH: TUMOR, Dose [Carcinogen]: 4.16 PPM IN WATER FOR 1 HR, Promoter: NONE USED): 97%, 94%, 3%, not significant
tumour outcome (control, treated, inhibition, significance) (Carcinogen: (+/-)-1BETA,2ALPHA-DIHYDROXY-3ALPHA,4ALPHA-EPOXY-1,2,3,4-TETRAHYDROBENZO[A]PYRE NE, 78919-11-6, Dose [Inhibitor]: 0, 300 NMOL (TOTAL DOSE) APPLIED 10 MIN PRIOR TO CARCINOGEN DOSE INJECTED AS 1/7, 2/7, AND 4/7 OF THE TOTAL ON DAYS 1, 8, Route [Inhibitor]: INTRAPERITONEAL, Species: MOUSE, Strain/Sex: ICR/MALE, FEMALE, Target Tissue: Type of Lesion: LUNG: TUMOR, Dose [Carcinogen]: 50 NMOL (TOTAL DOSE) INJECTED IN DOSES OF 1/7, 2/7, AND 4/7 ON DAYS 1, 8, AND 15 OF LIFE, RESPECTIVELY, Promoter: NONE USED): 93%, 86%, 8%, not significant
tumour outcome (control, treated, inhibition, significance) (Carcinogen: (+/-)-7BETA,8ALPHA-DIHYDROXY-9ALPHA,10ALPHA-EPOXY-7,8,9,10-TETRAHYDROBENZO[A]PYR ENE, 58917-67-2, Dose [Inhibitor]: 0, 300 NMOL (TOTAL DOSE) APPLIED 10 MIN PRIOR TO CARCINOGEN DOSE INJECTED AS 1/7, 2/7, AND 4/7 OF THE TOTAL ON DAYS 1, 8, Route [Inhibitor]: INTRAPERITONEAL, Species: MOUSE, Strain/Sex: ICR/MALE, FEMALE, Target Tissue: Type of Lesion: LUNG: TUMOR, Dose [Carcinogen]: 15 NMOL (TOTAL DOSE) INJECTED IN DOSES OF 1/7, 2/7, AND 4/7 ON DAYS 1, 8, AND 15 OF LIFE, RESPECTIVELY, Promoter: NONE USED): 86%, 76%, 12%, not significant
tumour outcome (control, treated, inhibition, significance) (Carcinogen: (+/-)-7BETA,8ALPHA-DIHYDROXY-9ALPHA,10ALPHA-EPOXY-7,8,9,10-TETRAHYDROBENZO[A]PYR ENE, 58917-67-2, Dose [Inhibitor]: 0, 1250 NMOL IN 200 µL ACETONE:METHANOL (45:55) ONCE APPLIED 5 MIN PRIOR TO CARCINOGEN DOSE (STUDY DURATION: 21 WK), Route [Inhibitor]: DERMAL, Species: MOUSE, Strain/Sex: CD-1/FEMALE, Target Tissue: Type of Lesion: SKIN: TUMOR, Dose [Carcinogen]: 200 NMOL IN ACETONE:DMSO (90:10) ONCE, Promoter: 12-O-TETRADECANOYLPHORBOL-13-ACETATE, 16561-29-8): 62%, 50%, 19%, not significant
tumour outcome (control, treated, inhibition, significance) (Carcinogen: (+/-)-7BETA,8ALPHA-DIHYDROXY-9ALPHA,10ALPHA-EPOXY-7,8,9,10-TETRAHYDROBENZO[A]PYR ENE, 58917-67-2, Dose [Inhibitor]: 0, 2500 NMOL IN 200 µL ACETONE:METHANOL (45:55) ONCE APPLIED 5 MIN PRIOR TO CARCINOGEN DOSE (STUDY DURATION: 21 WK), Route [Inhibitor]: DERMAL, Species: MOUSE, Strain/Sex: CD-1/FEMALE, Target Tissue: Type of Lesion: SKIN: TUMOR, Dose [Carcinogen]: 200 NMOL IN ACETONE:DMSO (90:10) ONCE, Promoter: 12-O-TETRADECANOYLPHORBOL-13-ACETATE, 16561-29-8): 62%, 43%, 31%, not significant
tumour outcome (control, treated, inhibition, significance) (Carcinogen: (+/-)-7BETA,8ALPHA-DIHYDROXY-9ALPHA,10ALPHA-EPOXY-7,8,9,10-TETRAHYDROBENZO[A]PYR ENE, 58917-67-2, Dose [Inhibitor]: 0, 2500 NMOL IN 200 µL ACETONE:METHANOL (45:55) ONCE APPLIED 30 MIN PRIOR TO CARCINOGEN DOSE (STUDY DURATION: 21 WK), Route [Inhibitor]: DERMAL, Species: MOUSE, Strain/Sex: CD-1/FEMALE, Target Tissue: Type of Lesion: SKIN: TUMOR, Dose [Carcinogen]: 200 NMOL IN ACETONE:DMSO (90:10) ONCE, Promoter: 12-O-TETRADECANOYLPHORBOL-13-ACETATE, 16561-29-8): 53%, 33%, 38%, not significant
tumour outcome (control, treated, inhibition, significance) (Carcinogen: (+/-)-7BETA,8ALPHA-DIHYDROXY-9ALPHA,10ALPHA-EPOXY-7,8,9,10-TETRAHYDROBENZO[A]PYR ENE, 58917-67-2, Dose [Inhibitor]: 0, 2500 NMOL IN 200 µL ACETONE:METHANOL (45:55) ONCE APPLIED 120 MIN PRIOR TO CARCINOGEN DOSE (STUDY DURATION: 21 WK), Route [Inhibitor]: DERMAL, Species: MOUSE, Strain/Sex: CD-1/FEMALE, Target Tissue: Type of Lesion: SKIN: TUMOR, Dose [Carcinogen]: 200 NMOL IN ACETONE:DMSO (90:10) ONCE, Promoter: 12-O-TETRADECANOYLPHORBOL-13-ACETATE, 16561-29-8): 63%, 43%, 32%, not significant
tumour outcome (control, treated, inhibition, significance) (Carcinogen: AZOXYMETHANE, 25843-45-2, Dose [Inhibitor]: 0, 4000 PPM IN DIET BEGINNING PRIOR TO CARCINOGEN DOSE AND CONTINUING FOR DURATION OF STUDY (STUDY DURATION: 54 WK), Route [Inhibitor]: ORAL, Species: RAT, Strain/Sex: F344/MALE, Target Tissue: Type of Lesion: COLON: ADENOCARCINOMA, Dose [Carcinogen]: 15 MG/KG 1/WK FOR 2 WK, Promoter: NONE USED): 72%, 64%, 11%, not calculated
tumour outcome (control, treated, inhibition, significance) (Carcinogen: AZOXYMETHANE, 25843-45-2, Dose [Inhibitor]: 0, 4000 PPM IN DIET BEGINNING PRIOR TO CARCINOGEN DOSE AND CONTINUING FOR DURATION OF STUDY (STUDY DURATION: 54 WK), Route [Inhibitor]: ORAL, Species: RAT, Strain/Sex: F344/MALE, Target Tissue: Type of Lesion: COLON: ADENOMA, Dose [Carcinogen]: 15 MG/KG 1/WK FOR 2 WK, Promoter: NONE USED): 14%, 8%, 43%, not calculated
